Experiment [1] has as its target T1, Serine/threonine-protein kinase pim-1 (Homo sapiens, UniProt P11309). Kind of experiment: Inhibition of PIM1 (unknown origin).
Another experiment deals with HT-29. Description: Cytotoxicity against human HT-29 cells after 24 hrs by MTT assay. The class given is functional, cell-based. Conditions: HT-29, 24 h.
The species named for experiment [2] is Homo sapiens. Kind of experiment: Selectivity ratio of IC50 for PI3kdelta (unknown origin) to Ki for PIM1 (unknown origin).
Experiment [3] is filed under the species Homo sapiens. Kind of experiment: Selectivity ratio of IC50 for PI3kgamma (unknown origin) to Ki for PIM1 (unknown origin).
The species entered for experiment [4] is Homo sapiens. Kind of experiment: Selectivity ratio of IC50 for PI3kalpha (unknown origin) to Ki for PIM1 (unknown origin).
The target of experiment [5] is T1, Serine/threonine-protein kinase pim-1. Kind of experiment: Inhibition of N-terminal GST-tagged recombinant human full length Pim-1 expressed in Escherichia coli cells.
A short description of experiment [6]: Cytotoxicity against human […] cells after 24 hrs by MTT assay. Format: functional, cell-based. In general terms: Tetrazolium assays rely on reduction of a dye to a coloured formazan, in cell work by metabolically active cells.
Another experiment deals with MCF7. Description: Cytotoxicity against human MCF7 cells after 24 hrs by MTT assay. The class given is functional, cell-based. Conditions: MCF7, 24 h.

The structures appear in SMILES notation.

T1 sequence (P11309 whole entry): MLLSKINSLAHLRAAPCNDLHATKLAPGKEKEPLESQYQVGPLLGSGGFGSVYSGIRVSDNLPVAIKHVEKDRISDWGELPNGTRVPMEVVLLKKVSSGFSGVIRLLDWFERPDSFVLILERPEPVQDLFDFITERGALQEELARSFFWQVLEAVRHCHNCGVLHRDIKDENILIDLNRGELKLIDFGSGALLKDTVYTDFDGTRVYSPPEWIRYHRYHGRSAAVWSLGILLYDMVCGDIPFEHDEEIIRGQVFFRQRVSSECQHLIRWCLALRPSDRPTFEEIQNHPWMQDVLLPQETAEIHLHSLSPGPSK

In the case of `CSc1ncc(-c2cc(-c3ccc(Br)cc3)[nH]c(=N)c2C#N)n1Cc1ccccc1`, the IC50 (usually the concentration that gives 50% inhibition) was less than 150 nM in experiment [1] and more than 130 µM in the experiment on HT-29. For the compound `CC(C)(O)[C@H]1CC[C@H](Nc2ccc3ncc(-c4cccc(C(F)(F)F)c4)n3n2)CC1`, the Ratio in the experiment filed under Homo sapiens [2], in the experiment listed under Homo sapiens [3] and in the experiment listed under Homo sapiens [4] was 10 in each case.

For `O=C1NC(=O)/C(=C/c2ccnc(N3CCC(CNCc4ccc5ccccc5n4)CC3)n2)S1`, the Ki (in general, a dissociation constant, usually derived from enzyme kinetics or from competition with a known ligand) in experiment [5] is 7.7 nM. `CSc1ncc(-c2cc(-c3ccc4c(c3)OCO4)[nH]c(=O)c2C#N)n1Cc1ccccc1` registered an IC50 in the experiment with HT-29 of more than 130 µM. `CSc1ncc(-c2cc(-c3ccc(Br)cc3)[nH]c(=O)c2C#N)n1Cc1ccccc1`: the IC50 in experiment [1] is less than 150 nM; in the experiment on HT-29, more than 130 µM.

As to `Cc1nc2sc3c(c2c(C)c1Br)NC(c1ccc(O)c(O)c1)NC3=O` (centres undefined), the IC50 (in experiment [6]; with MCF7) was 60 to 1760 nM in each case. As for `COc1cc(C2NC(=O)c3sc4nc(C)c(Br)c(C)c4c3N2)ccc1O` (centres undefined), the IC50 (in experiment [6]; in the experiment on MCF7) was 60 to 1760 nM each time. `CSc1ncc(-c2cc(-c3ccc4c(c3)OCO4)[nH]c(=N)c2C#N)n1Cc1ccccc1` showed an IC50 in the experiment with HT-29 of more than 130 µM.
